For one series, the target named is Cytochrome P450 2C19 (Homo sapiens, UniProt P33261). The series can be described thus: Cytochrome panel assay with activity outcomes. Panel member name: p450-cyp2c19 Compounds with AC50 equal or less than 10 uM are considered active. The series is classed as functional.
A further series concerns the target Cytochrome P450 2D6 (Homo sapiens, UniProt P10635).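 Further: CYP2D6 member of a cytochrome P450 panel assay.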
In series [1] the target is T1, Probable nicotinate-nucleotide adenylyltransferase (Staphylococcus aureus (strain N315), UniProt P65502). The series is classed as functional, Staphylococcus aureus subsp. aureus N315. The note with it: read-out: IC50_Mean.
T1 sequence (P65502 whole entry): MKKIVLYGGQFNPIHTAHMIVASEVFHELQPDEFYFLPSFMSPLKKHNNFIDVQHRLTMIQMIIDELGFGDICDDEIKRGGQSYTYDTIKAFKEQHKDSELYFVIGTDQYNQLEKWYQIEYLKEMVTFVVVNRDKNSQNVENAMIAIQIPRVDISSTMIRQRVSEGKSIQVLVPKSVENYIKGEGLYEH
The next series deals with NS3 (Hepatitis C virus, UniProt A3EZJ3). The series can be described thus: PubChem AID 2173. Also on record: species or system Hepacivirus hominis.
NS3, sequence (A3EZJ3 whole entry): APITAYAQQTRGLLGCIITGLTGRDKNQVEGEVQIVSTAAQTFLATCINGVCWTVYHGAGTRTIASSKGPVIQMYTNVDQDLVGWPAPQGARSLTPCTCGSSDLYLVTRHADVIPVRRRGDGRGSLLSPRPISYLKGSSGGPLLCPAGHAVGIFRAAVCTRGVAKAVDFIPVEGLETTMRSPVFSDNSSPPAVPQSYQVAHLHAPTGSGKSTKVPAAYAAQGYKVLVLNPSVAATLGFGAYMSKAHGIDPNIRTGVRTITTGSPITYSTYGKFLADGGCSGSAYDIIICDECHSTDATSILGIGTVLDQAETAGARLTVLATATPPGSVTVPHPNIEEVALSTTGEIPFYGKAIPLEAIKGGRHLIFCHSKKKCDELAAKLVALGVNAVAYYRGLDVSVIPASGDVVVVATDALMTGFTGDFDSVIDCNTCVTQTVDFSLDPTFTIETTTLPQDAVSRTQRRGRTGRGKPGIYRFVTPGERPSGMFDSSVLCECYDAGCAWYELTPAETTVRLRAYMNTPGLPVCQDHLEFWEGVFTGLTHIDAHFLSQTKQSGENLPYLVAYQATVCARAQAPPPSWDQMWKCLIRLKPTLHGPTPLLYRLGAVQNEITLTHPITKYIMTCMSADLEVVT
The target in series [2] is T1, Probable nicotinate-nucleotide adenylyltransferase. The class given is functional, Staphylococcus aureus subsp. aureus N315.
A further series relates to Vero. The series can be described thus: Vero cell cytotoxicity, cytotoxicity control for flavivirus capping enzyme inhibitors (AID 588742). The class given is functional. To be noted: Chlorocebus sabaeus.
The target of series [3] is T2, Low molecular weight phosphotyrosine protein phosphatase (Homo sapiens, UniProt P24666).
T2 sequence (P24666 whole entry): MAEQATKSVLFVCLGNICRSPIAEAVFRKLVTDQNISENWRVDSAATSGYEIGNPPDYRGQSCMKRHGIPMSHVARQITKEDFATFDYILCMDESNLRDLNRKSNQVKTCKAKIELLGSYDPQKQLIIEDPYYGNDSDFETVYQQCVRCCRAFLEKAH
The series is classed as functional. To be noted: read-out: IC50_Mean.

Another series has as its target Genome polyprotein (dengue virus type 2, UniProt P29990). The series can be described thus: Dengue-2 NS5 methyltransferase inhibitors, primary screen, biochemical, confirmation dose response (AID 588689). The class given is functional.
Series [4] deals with NAD-dependent protein deacylase sirtuin-5, mitochondrial (Homo sapiens, UniProt Q9NXA8). The series can be described thus: SIRT5 desuccinylase inhibitors, dose response, biochemical, fluorescence imaging, cherry-pick, set 5 (AID 720591).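 Further: desuccinylation of succinyl peptide AMC substrate read as fluorescence after trypsin release; potency of inhibitors that lower fluorescence and may act on trypsin instead.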
NAD-dependent protein deacylase sirtuin-5, mitochondrial, sequence (Q9NXA8 whole entry): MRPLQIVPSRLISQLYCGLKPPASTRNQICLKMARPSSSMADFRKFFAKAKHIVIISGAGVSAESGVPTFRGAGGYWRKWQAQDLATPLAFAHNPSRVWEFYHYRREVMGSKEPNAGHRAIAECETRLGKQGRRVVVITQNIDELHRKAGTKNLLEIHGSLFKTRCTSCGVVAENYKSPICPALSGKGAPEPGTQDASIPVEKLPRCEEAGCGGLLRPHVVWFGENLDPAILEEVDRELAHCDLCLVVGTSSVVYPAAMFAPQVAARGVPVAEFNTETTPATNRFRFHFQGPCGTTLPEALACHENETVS
Series [5] in a line: Late-stage probe development counterscreen for inhibitors of the Hepatitis C Virus non-structural protein 3 helicase (NS3): luminescence-based cell-based dose response assay to determine whether compounds that inhibit replication of HCV RNA replicon are cytotoxic. [Related pubchem assays (depositor defined):AID1800, AID1830, AID1845, AID1943, AID1945, AID2172, AID2173, AID2474, AID2476]. The class given is functional.

In series [6] the target is T2, Low molecular weight phosphotyrosine protein phosphatase. The series is classed as functional. The note with it: read-out: IC50_Mean. The source holds these as a separate data set.
Series [7] has as its target T3, Nucleotide-binding oligomerization domain-containing protein 1 (Homo sapiens, UniProt Q9Y239).
T3 sequence (Q9Y239 whole entry): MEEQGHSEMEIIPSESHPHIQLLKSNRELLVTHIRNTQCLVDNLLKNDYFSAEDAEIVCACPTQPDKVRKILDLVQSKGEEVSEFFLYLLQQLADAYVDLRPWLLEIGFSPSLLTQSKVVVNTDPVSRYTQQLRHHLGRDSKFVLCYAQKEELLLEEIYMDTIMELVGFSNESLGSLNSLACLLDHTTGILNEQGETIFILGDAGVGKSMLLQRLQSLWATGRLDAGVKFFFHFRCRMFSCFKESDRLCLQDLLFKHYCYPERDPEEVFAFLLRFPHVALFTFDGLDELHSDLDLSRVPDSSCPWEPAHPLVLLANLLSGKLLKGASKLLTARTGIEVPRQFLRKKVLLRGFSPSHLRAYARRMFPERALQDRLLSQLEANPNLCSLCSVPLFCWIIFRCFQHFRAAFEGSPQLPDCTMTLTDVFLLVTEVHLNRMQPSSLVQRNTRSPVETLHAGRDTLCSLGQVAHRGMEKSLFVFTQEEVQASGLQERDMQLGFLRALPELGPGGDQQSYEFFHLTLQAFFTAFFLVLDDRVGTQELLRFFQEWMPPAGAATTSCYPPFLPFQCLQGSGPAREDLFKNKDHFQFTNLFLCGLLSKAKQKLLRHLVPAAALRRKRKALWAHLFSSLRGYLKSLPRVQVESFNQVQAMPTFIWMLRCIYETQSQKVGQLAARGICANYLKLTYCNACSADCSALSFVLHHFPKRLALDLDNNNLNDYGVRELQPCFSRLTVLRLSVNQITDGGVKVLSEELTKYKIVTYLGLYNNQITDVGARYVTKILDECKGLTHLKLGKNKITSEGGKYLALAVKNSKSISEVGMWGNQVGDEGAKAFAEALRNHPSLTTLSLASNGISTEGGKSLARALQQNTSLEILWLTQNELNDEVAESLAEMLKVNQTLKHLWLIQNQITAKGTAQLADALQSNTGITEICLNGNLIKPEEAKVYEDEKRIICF
Kind of series: NOD1 signaling inhibitors, SAR follow-up, revised (AID 2333). The series is classed as functional.

Another series has as its system HEK293. The series can be described thus: cells. The note with it: Homo sapiens.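 Further: cells exposed to compound for 14 hours overnight before viability readout.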
Series [8] can be described thus: cytotoxicity in HEK-293T cells, dose response, cytotoxicity control for TCR NF-kB inhibitor project, luminescence, T-cell screen hits (AID 489026).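 Further: cells exposed to compound about 14 hours before the viability readout.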 The class given is functional, cell-based.
In another series the target is Tumor necrosis factor (Homo sapiens, UniProt P01375). The series can be described thus: TNFa-triggered NF-kB activation inhibitors, SAR follow-up, cell-based, revised (AID 2337). The class given is functional.
Tumor necrosis factor, sequence (P01375 whole entry): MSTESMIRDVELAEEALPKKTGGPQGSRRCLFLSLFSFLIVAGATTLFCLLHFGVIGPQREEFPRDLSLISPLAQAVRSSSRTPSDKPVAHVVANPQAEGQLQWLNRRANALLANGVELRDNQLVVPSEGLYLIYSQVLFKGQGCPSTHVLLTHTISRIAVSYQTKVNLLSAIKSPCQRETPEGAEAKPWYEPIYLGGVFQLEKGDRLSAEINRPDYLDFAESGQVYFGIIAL
For another series, the target named is Cytochrome P450 3A4 (Homo sapiens, UniProt P08684).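 Further: CYP3A4 tested as one member of a cytochrome P450 panel screen.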
Cytochrome P450 3A4, sequence (P08684 whole entry): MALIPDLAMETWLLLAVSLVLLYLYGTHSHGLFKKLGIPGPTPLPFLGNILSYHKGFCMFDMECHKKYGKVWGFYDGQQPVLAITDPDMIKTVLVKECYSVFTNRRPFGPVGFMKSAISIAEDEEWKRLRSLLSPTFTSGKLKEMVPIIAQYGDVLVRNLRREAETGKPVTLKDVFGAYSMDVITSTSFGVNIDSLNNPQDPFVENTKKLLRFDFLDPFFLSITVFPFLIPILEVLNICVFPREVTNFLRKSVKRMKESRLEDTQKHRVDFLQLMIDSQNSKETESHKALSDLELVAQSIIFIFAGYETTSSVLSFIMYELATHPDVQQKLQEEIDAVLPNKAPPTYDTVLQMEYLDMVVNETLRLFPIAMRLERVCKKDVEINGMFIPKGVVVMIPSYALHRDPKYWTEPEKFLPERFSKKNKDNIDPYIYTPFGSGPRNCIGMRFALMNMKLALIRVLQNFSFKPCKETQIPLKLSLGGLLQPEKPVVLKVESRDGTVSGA
For series [9], the target named is Sphingosine 1-phosphate receptor 2 (Homo sapiens, UniProt O95136). The series can be described thus: Dose Response Cell Based Assay for Antagonists of the S1P2 Receptor. [Related pubchem assays: 856, 736 ]. The class given is functional.
Sphingosine 1-phosphate receptor 2, sequence (O95136 whole entry): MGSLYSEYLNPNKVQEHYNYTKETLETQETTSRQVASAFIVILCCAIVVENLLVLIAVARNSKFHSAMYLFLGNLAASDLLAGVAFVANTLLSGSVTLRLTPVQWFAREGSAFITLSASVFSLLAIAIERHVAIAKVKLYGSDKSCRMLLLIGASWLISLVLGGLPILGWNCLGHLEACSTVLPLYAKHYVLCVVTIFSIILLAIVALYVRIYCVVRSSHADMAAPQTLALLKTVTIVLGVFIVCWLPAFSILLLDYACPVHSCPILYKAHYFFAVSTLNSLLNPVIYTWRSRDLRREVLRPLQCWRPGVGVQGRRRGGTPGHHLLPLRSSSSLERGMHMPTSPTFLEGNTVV
In series [10] the target is T4, Microphthalmia-associated transcription factor (Homo sapiens, UniProt O75030).
T4 sequence (O75030 whole entry): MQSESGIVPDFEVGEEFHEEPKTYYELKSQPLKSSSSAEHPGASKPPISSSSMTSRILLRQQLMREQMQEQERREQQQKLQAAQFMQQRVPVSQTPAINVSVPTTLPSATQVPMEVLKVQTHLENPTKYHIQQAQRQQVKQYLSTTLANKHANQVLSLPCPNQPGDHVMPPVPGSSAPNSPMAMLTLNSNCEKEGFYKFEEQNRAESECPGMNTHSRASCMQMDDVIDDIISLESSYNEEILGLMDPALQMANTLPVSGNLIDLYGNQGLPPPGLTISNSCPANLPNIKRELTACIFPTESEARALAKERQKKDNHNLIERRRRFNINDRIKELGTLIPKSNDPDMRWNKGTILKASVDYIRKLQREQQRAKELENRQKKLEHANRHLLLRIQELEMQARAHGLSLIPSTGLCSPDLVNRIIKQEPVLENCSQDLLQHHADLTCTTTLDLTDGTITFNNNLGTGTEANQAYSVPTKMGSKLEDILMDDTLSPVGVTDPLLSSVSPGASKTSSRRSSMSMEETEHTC
Kind of series: TRPM1 promoter luciferase signal decrease, dose response, MITF inhibitor project, cell-based, SK-MEL-5, cherry-picked, set 3 (AID 493073).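 Further: SK-MEL-5 melanoma cells with luciferase driven by the MITF target TRPM1 promoter.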 The series is classed as functional.

In the next series the test system is A-375. Kind of series: MITF: Counter assay: A375 proliferation Measured in Cell-Based System Using Plate Reader - 2084-03_Inhibitor_Dose_DryPowder_Activity. [Related pubchem assays (depositor defined):AID488944]. The class given is functional. To be noted: Homo sapiens.
In series [11] the target is Disintegrin and metalloproteinase domain-containing protein 17 (Homo sapiens, UniProt P78536). The series can be described thus: ADAM17 protease inhibitors, dose response, counter-screen for ADAM10 exosite inhibitor project, biochemical, quenched FRET substrate (AID 743253).
For the next series, the target named is CAAX prenyl protease 2 (Homo sapiens, UniProt Q9Y256). The series can be described thus: human Rce1 protease inhibitors, dose response, biochemical, yeast membranes, quenched-peptide fluorescence, cherry-pick (AID 588849).
CAAX prenyl protease 2, sequence (Q9Y256 whole entry): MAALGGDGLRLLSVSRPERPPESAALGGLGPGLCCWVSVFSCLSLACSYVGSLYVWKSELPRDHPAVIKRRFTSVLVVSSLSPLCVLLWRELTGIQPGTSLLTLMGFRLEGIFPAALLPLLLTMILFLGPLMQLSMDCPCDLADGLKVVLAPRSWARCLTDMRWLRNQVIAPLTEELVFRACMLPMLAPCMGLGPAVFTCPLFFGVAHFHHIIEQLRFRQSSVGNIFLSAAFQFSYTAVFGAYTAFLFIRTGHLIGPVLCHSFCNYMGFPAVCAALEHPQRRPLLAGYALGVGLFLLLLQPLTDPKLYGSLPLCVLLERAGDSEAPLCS
A short description of series [12]: inhibitors of intracellular T. cruzi replication, confirmation, NIH3T3 host cells, beta-gal luminescence (AID 2044).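 Further: intracellular parasites grown in NIH/3T3 mouse fibroblasts as host cells; luminescent beta-galactosidase reporter signal from transgenic T. cruzi replicating inside host cells; inhibitors lower the luminescence signal.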 The class given is functional, cell-based.
Series [13] can be described thus: cytotoxicity toward NIH3T3 fibroblasts, dose response, counter-screen, cell-based, ATP luminescence, mouse fibroblasts (AID 2010).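 Further: cells exposed to compound for about 90 hours before reading.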 The series is classed as functional. (In general: The purpose of a counterscreen is to sort out artefacts and off-target activity.)
A further series has as its target CAAX prenyl protease 1 (Saccharomyces cerevisiae S288c, UniProt P47154). The series can be described thus: Ste24 protease inhibitors, dose response, biochemical, S. cerevisiae, plate reader, cherry-pick (AID 488815).
Series [14] is described as follows: ADAM10 inhibitors, peptide cleavage, dose response, biochemical, QFRET (AID 743254).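 Further: ADAM10 enzyme with the DM2 quenched FRET peptide as substrate; EDANS fluorescence gain as the protease cuts the substrate; inhibitor potency against ADAM10 proteolytic activity.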
Series [15] can be described thus: cytotoxicity in HMLE control line with eGFP shRNA, dose response, counter-screen for HMLE_sh_ECad selective toxicity project, cell-based, HMLE_sh_eGFP, luminescence (AID 463074).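 Further: HMLE human mammary epithelial cells expressing control shRNA against eGFP.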 The series is classed as functional, Homo sapiens.
Series [16] can be described thus: Luminescence Cell-Based Dose Retest to Confirm Inhibitors of Cancer Stem Cells. [Related pubchem assays (depositor defined):AID2717, AID2721]. The series is classed as functional. To be noted: Homo sapiens.

The source made the active and inactive calls. A value given as a limit tells only on which side of the number the result lay.

The AC50 is the midpoint of the concentration-response curve, whichever way the signal moves. As usually defined, the CC50 is the concentration at which the toxic effect on the cells reaches its halfway point. In general, EC50 refers to the concentration giving half of the maximal effect.

CAAX prenyl protease 1, sequence (P47154 whole entry): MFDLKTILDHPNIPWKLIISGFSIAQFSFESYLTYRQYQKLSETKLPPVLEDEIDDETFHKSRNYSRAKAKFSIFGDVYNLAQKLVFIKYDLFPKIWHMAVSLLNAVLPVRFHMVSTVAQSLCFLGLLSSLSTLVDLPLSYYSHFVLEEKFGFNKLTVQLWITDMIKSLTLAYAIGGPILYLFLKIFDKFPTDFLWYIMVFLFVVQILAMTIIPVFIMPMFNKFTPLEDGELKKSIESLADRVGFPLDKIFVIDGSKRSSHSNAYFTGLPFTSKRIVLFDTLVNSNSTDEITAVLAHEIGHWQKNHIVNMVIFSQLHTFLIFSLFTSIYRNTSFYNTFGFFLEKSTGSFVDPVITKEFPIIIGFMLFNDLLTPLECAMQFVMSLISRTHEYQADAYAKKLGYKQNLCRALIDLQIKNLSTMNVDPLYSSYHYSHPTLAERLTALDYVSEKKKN
Genome polyprotein, sequence (P29990 2492-3391 limits assumed): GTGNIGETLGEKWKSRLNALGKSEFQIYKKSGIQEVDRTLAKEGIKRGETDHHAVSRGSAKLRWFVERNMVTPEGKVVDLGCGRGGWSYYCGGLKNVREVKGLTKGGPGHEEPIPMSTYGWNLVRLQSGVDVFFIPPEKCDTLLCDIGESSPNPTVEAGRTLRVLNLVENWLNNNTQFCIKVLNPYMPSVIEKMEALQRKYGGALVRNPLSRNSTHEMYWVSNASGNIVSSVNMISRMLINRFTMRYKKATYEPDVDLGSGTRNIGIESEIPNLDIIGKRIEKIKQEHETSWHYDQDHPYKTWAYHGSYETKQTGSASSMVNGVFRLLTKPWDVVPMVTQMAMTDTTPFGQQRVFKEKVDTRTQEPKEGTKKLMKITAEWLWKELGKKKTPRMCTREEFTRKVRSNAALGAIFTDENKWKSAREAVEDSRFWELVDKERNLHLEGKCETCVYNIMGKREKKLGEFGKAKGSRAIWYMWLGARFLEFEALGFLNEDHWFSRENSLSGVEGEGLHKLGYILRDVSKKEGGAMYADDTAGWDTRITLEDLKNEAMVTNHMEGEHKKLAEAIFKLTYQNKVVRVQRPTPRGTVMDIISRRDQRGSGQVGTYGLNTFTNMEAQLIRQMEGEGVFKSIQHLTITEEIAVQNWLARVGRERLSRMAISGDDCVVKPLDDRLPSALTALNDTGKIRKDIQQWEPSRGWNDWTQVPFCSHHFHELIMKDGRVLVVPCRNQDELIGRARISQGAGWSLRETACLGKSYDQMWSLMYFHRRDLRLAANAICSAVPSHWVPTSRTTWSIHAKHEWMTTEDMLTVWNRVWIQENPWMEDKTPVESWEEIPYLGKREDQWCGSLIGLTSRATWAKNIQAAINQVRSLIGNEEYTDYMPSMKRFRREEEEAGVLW
Cytochrome P450 2D6, sequence (P10635 whole entry): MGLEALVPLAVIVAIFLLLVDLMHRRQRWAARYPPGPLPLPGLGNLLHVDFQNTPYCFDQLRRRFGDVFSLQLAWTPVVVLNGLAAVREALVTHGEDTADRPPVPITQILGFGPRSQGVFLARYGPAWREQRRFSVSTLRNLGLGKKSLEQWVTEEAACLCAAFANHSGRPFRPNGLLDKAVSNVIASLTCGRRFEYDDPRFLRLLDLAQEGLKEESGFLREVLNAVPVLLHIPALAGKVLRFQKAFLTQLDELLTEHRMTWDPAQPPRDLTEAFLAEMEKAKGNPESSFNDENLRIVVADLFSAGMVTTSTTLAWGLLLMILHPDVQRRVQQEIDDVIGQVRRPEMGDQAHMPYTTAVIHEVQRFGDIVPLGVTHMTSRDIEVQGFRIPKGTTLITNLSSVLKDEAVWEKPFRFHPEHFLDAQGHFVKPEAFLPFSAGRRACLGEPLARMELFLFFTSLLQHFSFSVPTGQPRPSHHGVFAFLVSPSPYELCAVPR
Cytochrome P450 2C19, sequence (P33261 whole entry): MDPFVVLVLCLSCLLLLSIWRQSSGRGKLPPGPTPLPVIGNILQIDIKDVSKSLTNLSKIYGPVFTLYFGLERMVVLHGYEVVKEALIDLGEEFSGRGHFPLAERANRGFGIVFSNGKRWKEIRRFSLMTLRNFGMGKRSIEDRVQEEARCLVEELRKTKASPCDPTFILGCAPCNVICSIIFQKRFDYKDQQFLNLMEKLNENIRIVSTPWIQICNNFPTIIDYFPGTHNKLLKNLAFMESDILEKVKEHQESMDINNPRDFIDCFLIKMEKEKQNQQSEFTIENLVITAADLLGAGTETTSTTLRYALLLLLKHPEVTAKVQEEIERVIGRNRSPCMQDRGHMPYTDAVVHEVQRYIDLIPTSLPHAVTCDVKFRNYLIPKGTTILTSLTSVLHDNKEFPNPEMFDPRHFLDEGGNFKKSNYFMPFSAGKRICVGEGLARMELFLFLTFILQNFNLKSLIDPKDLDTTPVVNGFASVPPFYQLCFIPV

Consider `CC[C@@]1([N+](=O)[O-])C[C@H]2C=C[C@@H]1C2.CC[C@@]1([N+](=O)[O-])C[C@H]2C=C[C@@H]1C2`, for which the AC50 entry on Cytochrome P450 2C19 and on Cytochrome P450 2D6 was “inconclusive” each time.
With `Cc1cc(N2C(=O)C(O)=C(C(=O)c3ccc(C)o3)C2c2ccc(OCc3ccccc3)cc2)no1` (configuration not stated), the IC50 in series [1] was 28.9 µM (active); at NS3, 1.74 µM (active); in [2], 8.93 µM (active); in series [3], 2.98 µM (active); on Genome polyprotein, > 100 µM (active); in series [6] it was > 80 µM (inactive). Besides, the figures for the cytotoxic concentration (CC50) (in the series on Vero; in series [5]) were > 40 µM (active) and > 100 µM (inactive), respectively. For the same compound, the AC50 in series [4] was > 30 µM (inactive).
Take `O=C(Nc1ccc(S(=O)(=O)N2CCOCC2)cc1)c1ccc(CN2CCc3ccccc3C2)cc1`: the IC50 was 0.347 µM (active) in series [7]; 5.46 µM (active) in the series with HEK293; > 80 µM (inactive) in [8]; 0.627 µM (active) at Tumor necrosis factor; 3.77 µM (active) in series [9]. Further, the concentration at half-maximal activity (AC50) result at Cytochrome P450 3A4 was “inconclusive”.
For `CC(C)(C)c1ccc(OCCCNCc2ccccc2)cc1`, the concentration at half-maximal activity (AC50) is 18.4 µM (active) in [10] and 29.7 µM (active) in the series with A-375.
Turning to `NC(=O)[C@@H]1CC2(CC(c3cccc(NC(=O)CC(c4ccccc4)c4ccccc4)c3)=NO2)CN1C(=O)c1ccc(Cl)cc1` (some centres not stated), the IC50 is > 69.5 µM (inactive) in [11] and > 7.72 µM (active) in series [14]. The AC50 on CAAX prenyl protease 2 is 41.7 µM (active); on CAAX prenyl protease 1, 5.27 µM (active). In addition, the concentration giving a half-maximal response (EC50) in series [12] is 0.619 µM (active); in series [13] it was > 60 µM (not active).
Consider `COc1cc(F)cc(-c2ccc3c(c2)c(-c2cccs2)c(-c2cc(OC)cc(OC)c2)n3C)c1`, for which the AC50 was 26.5 µM (active) in series [15] and 16.5 µM (active) in series [16].

The values are drawn from ChEMBL document CHEMBL1201862, “PubChem BioAssay data set” (2004).
